{"source": "patent US10426755B2", "about": "“Methods for inhibiting cancer cells” (Chang Gung Memorial Hospital, Chiayi, priority 2015, dated 2019)", "assay_type_in_all_cases": "cell-based", "key": {"[1]": {"system": "ARK2 endometrial cancer cells", "test": "XTT proliferation assay, ARK2", "settings": "5, 10 and 20 μM DT, 1-2 days, FIG. 4", "procedure": "The prostate cancer cells were plated at a density of 10^3 or 3×10^3 per well, in a 96-well plate, in a medium containing 10% Fetal bovine serum (FBS) (Gibco®, commercially available from Life Technologies, USA). Once the prostate cancer cells were attached to the culture dish, the 10% FBS medium was replaced with a second 10% FBS medium and each of the prostate cancer cell line was treated with 1, 5, and 10 μM of DT respectively for 1-2 days. The absorbance was measured using XTT assay kit (commercially available from Roche, Switzerland) at 492 nm using an ELISA reader (Bio-Rad Laboratories, USA).\nAn in vitro evaluation of the effect of DT on endometrial cancer cells was performed. The endometrial cancer cell lines, ARK1 and ARK2, were provided by Dr. T H Wang at Chang Gung Meorial Hospital, Linkou, Taiwan)\nThe endometrial cancer cells were cultured and plated according to the steps in Example 1 and each of the endometrial cancer cell line was treated with 0 (control), 5, 10 and 20 μM of DT, respectively for 1-2 days. The absorbance was measured using XTT assay kit at 492 nm using an ELISA reader."}, "[2]": {"system": "lung cancer cells (A549 and chemotherapy-resistant/metastatic H460)", "test": "Annexin V/PI flow cytometry apoptosis/necrosis, lung cancer cells", "settings": "10 or 20 μM DT, 24-48 hours, vs PBS and DMSO vehicle (CT); time dependent; FIG. 7", "procedure": "The effect of DT on metastatic prostate cancer cells (hormone therapy-resistant PC3, DU145 and LNCaP); lung cancer cells (A549 and chemotherapy-resistant/metastatic H460); and breast cancer cells (MCF-7, tamoxifen-resistant MCF7 and MDA MB-231) was assessed.\n1×10^6 Cancer cells were seeded in a 100-mm plate and cultured overnight. The cancer cells were treated with phosphate buffered saline (PBS), a Dimethyl sulfoxide (DMSO) vehicle (CT), 10 or 20 μM of DT for 24-48 hours, then collected and washed with cold PBS. The supernatant was removed by centrifugation and resuspended in FITC Annexin V binding buffer and Propidium iodide (PI) (Annexin V-FITC Apoptosis Detection Kit, commercially available from Strong Biotech Corporation, Taiwan). The suspended cancer cells were stained at room temperature, in the dark for 15 min and analyzed by the BD FACSCanto™ flow cytometry (Becton Dickinson, USA). The amount of early apoptosis, late apoptosis, and necrosis was measured as the percentage of annexin-V positive/PI negative (Q4 in the FACS images), annexin-V positive/PI positive (Q2 in the FACS images), and annexin-V negative/PI positive cells (Q1 in the FACS images), respectively. Normal cells are in […] of the FACS images."}, "[3]": {"system": "skp2 and downstream genes in MCF7-tamoxifen resistant breast cancer cells", "test": "skp2 and downstream gene mRNA expression, tamoxifen resistant breast cancer cells", "settings": "various concentrations of DT vs DMSO, FIG. 10 (h), (j)", "procedure": "It has been reported that skp2 plays an important role in the metastasis of cancer cells. An in vitro evaluation of the effect of DT on prostate cancer cell metastasis was performed, by measuring the mRNA expression of skp2 in the following prostate cancer cell lines: meatstatic DU145 cells (Panels i-j of FIG. 9), hormone therapy resistant and metastatic PC3 cells (Panel h of FIG. 9), and 22RV1 cells (Panels k-l of FIG. 9), A549 lung cancer cells (Panels (c)-(e) of FIG. 10), chemotherapy-resistant/metastatic H460 lung cancer cells (Panels (d) and (f) of FIG. 10), HCT116 colon cancer cells (Panels (g) and (i) of FIG. 10) and MCF7-tamoxifen resistant breast cancer cells (Panels (h) and (j) of FIG. 10) […].\nThe cancer cells were treated with DMSO and various concentrations of DT."}, "[4]": {"system": "lung cancer cells (A549 and chemotherapy resistant/metastatic H460)", "test": "Cell invasion assay (transwell, Matrigel), lung cancer cells", "settings": "5 or 10 μM DT, 3 days, vs control vehicle; FIG. 11", "procedure": "(§1) An in vitro evaluation of the effect of DT on lung cancer cells (A549 and chemotherapy resistant/metastatic H460), prostate cancer cells (metastatic DU145) and colorectal cancer cells (chemotherapy resistant HCT116) invasion and migration was performed, using cell invasion assay and cell migration assay.\nCell Invasion Assay: cells of interest were treated with a control vehicle, 5 or 10 μM of DT and incubated for 3 days. 1×10^5 cells were placed into the upper chamber of transwell plates (8 μm) with membranes pre-coated with 20% Matrigel and the bottom chamber contained 600 μL media supplemented with 10% fetal bovine serum (FBS). The cells migrated to the bottom of the chamber were fixed, stained and counted."}, "[5]": {"system": "lung cancer cells (A549 and chemotherapy resistant/metastatic H460)", "test": "Cell migration (wound-healing) assay, lung cancer cells", "settings": "DT vs control vehicle, 24 h, dose dependent; FIG. 11", "procedure": "as §1\n(§2) Cell Migration Assay: In vitro wound-healing assay was used to assess cell motility in two dimensions. Cancer cells were plated overnight to achieve a subconfluent cell layer in 24-well plates. A scratch was made on the cell layer with a micropipette tip, and cultures were washed twice with serum-free medium to remove floating cells. Cancer cells were incubated in a culture medium containing DT or the control vehicle. Wound healing was visualized by comparing photographs taken at the time of adding the DT/control vehicle and 24 h later. Three experiments were done in quadruplicates."}, "[6]": {"system": "prostate cancer cells (metastatic DU145, PC3, 22RV1)", "test": "Cell migration (wound-healing) assay, prostate cancer cells", "settings": "DT vs control vehicle, 24 h, dose dependent; FIG. 12 (b), (d), (f)", "procedure": "as §1, §2"}, "[7]": {"system": "CCL2 in THP1 cells/22RV1 co-culture", "test": "CCL2 ELISA, THP1/22RV1 co-culture", "settings": "DT-treated monocyte/22RV1 co-culture medium; 5 or 10 μM DT, 24 hours; FIG. 15 (b)", "procedure": "As illustrated in Example 10, the production of CCL2 was inhibited by DT in both prostate cancer cells and macrophage, the effect of DT on monocyte/cancer cell co-culture and macrophage/cancer cell co-culture was examined using the invasion assay described in Example 9. • (a) THP1 monocytes, Raw264.7 macrophage, monocyte/prostate cancer co-culture and macrophage/prostate cancer co-culture were treated with a vehicle (DMSO), 5 or 10 μM DT for 24 hours, the cultured medium was collected and placed into the lower chamber of a transwell plate. • (b) Prostate cancer cells (PC3, DU145 and 22RV1) were placed in the cell invasion assay). The level of CCL2 in the invasion assay was measured by ELIZA method."}, "[8]": {"system": "macrophages with prostate cancer cells (DU145 or PC3)", "test": "Macrophage migration in invasive assay with DT-treated prostate cancer cells", "settings": "DT-treated vs untreated DU145 and PC3 cells; images not shown", "procedure": "An in vitro study to evaluate the effect of DT on macrophage and cancer cell migration was performed.\nMacrophages were treated with a vehicle (DMSO), 5 or 10 μM DT. The mobility of the macrophages was not affected by DT. The macrophages were placed in an invasive assay, prepared accordingly to the steps in Example 10 using DT-treated prostate cancer cells (DU145 or PC3) incubated in 10% CD-FBS RPMI medium."}}, "note": "Entries after “also recorded” stand apart in the source; their conditions may differ.", "data": [{"smiles": "Cc1cccc2c3c(ccc12)C(=O)C1=C(OCC1C)C3=O", "note": "(centres unmarked) [DT, dihydroisotanshinone I]", "values": [{"measurement": "inhibition of ARK2 endometrial cancer cells", "setting": "[1]", "result": "effective in inhibiting ARK1 and ARK2 endometrial cancer cells"}, {"measurement": "early apoptosis, late apoptosis and necrosis, lung cancer cells", "setting": "[2]", "result": "more early apoptosis, late apoptosis and necrosis; also recorded: induced lung cancer cell apoptosis/necrosis"}, {"measurement": "mRNA expression of skp2 and its downstream genes, target therapy resistant breast cancer", "setting": "[3]", "result": "effectively inhibit mRNA expression of skp2 and its downstream genes; also recorded: reduces skps and its downstream genes, MMP2, MMP9 and E-cadherin"}, {"measurement": "lung cancer cell motility (invasion assay)", "setting": "[4]", "result": "reduced metastatic lung cancer cell motility; also recorded: reduced the motility of lung cancer cells"}, {"measurement": "lung cancer cell migration into the wounded area", "setting": "[5]", "result": "reduced metastatic lung cancer cell migration; also recorded: reduced lung cancer cell migration into the wounded area"}, {"measurement": "prostate cancer cell migration into the wounded area", "setting": "[6]", "result": "reduced the motility and migration of prostate cancer cells; also recorded: reduced prostate cancer cell migration into the wounded area"}, {"measurement": "concentration of CCL2", "setting": "[7]", "result": "significantly reduced"}, {"measurement": "macrophage migration induced by prostate cancer cells", "setting": "[8]", "result": "inhibit macrophage migration"}]}]}
